In US10080757B2 (WISCONSIN ALUMNI RESEARCH FOUNDATION, priority 2016, dated 2018):

How the values were obtained:
recombinant MtbUGM = target: T1, recombinant MtbUGM (Mycobacterium tuberculosis, UniProt P9WIQ1); experiment: biochemical
T1 construct: made in house

[1] = Aggregation by Dynamic Light Scattering (DLS); type: physicochemical; conditions: 1% DMSO

T1 sequence (P9WIQ1 whole entry): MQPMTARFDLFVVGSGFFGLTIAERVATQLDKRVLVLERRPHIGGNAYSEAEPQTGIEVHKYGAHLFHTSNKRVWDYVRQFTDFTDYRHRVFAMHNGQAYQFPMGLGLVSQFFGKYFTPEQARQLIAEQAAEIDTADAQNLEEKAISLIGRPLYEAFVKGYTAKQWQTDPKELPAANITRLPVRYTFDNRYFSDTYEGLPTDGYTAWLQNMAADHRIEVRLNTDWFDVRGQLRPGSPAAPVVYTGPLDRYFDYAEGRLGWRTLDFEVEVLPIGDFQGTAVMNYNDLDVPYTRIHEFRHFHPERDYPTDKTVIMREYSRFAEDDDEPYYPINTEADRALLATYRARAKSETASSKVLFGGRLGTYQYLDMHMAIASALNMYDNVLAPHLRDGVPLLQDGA

O=C(O)CC1Sc2nnc(Cc3ccc(Br)cc3)n2N=C1c1ccc(-c2ccccc2)cc1 (stereo not shown) [Compound 25, 2-(6-([1,1′-biphenyl]-4-yl)-3-(4-bromobenzyl)-7H-[1,2,4]triazolo[3,4-b][1,3,4]thiadiazin-7-yl)acetic acid]
MtbUGM activity in presence of compound (in words) (recombinant MtbUGM; 10 μM): completely ablated | inhibition at 10 µM (recombinant MtbUGM; 10 μM, mean of two replicates, read-out: % inhib MtbUGM (10 μM)): 100% | inhibition at 50 µM (recombinant MtbUGM; 50 μM, mean of two replicates, read-out: % inhib MtbUGM (50 μM)): 100% | inhibition at 100 µM (recombinant MtbUGM; 100 μM, mean of two replicates, read-out: % inhib MtbUGM (100 μM)): 100% | Effect of surfactant on relative inhibitor potency (recombinant MtbUGM; presence and absence of Tween80): insignificant | Aggregates by dynamic light scattering ([1]; 10 μM in PBS buffer): No aggregates were observed | Aggregates by dynamic light scattering ([1]; 100 μM in PBS buffer): No aggregates were observed
